Source: patent US6028107A, “Orthomolecular medical use of L-citrulline for vasoprotection, relaxative smooth muscle tone and cell protection” (priority 1997, dated 2000)
“Also recorded” adds a separate entry of the source.

Tests used:
[1] = tested on: arterial injury; details: 2.25% in the drinking water, long-term; cited from earlier work
[2] = tested on: glomerular hyperfiltration; details: long-term oral, marked amounts; cited from earlier work
[3] = tested on: endothelial c-NOS; details: plasma L-arginine above normal fasting about 75 to 90 μM; cited from earlier work
[4] = oral 3-gram single doses, healthy humans; cited from earlier work
[5] = tested on: uterine muscle strips; details: added to extracellular fluid; cited from earlier work
[6] = tested on: creatine biosynthesis; details: dietary, man; cited from earlier work
[7] = tested on: spermatocytes; details: oral 4 to 20 grams daily; cited from earlier work
[8] = rats, parenteral injection; cited from earlier work
[9] = tested on: oligemic vasoconstriction; details: rats; cited from earlier work
[10] = tested on: endothelial c-NOS; details: L-glutamine 600 μM; above 10 μM to 1,000 μM and more L-arginine; cited from earlier work
[11] = tested on: endothelium-dependent vasodilation; details: infusion, hypercholesterolemia; cited from earlier work
[12] = tested on: purified endothelial c-NOS; details: purified enzyme in vitro; read-out: apparent Michaelis constant (Km); cited from earlier work
[13] = cited from earlier work
[14] = Plasma ultrafiltrate L-arginine level after oral L-citrulline (Example 1); assay type: in vivo, human
Procedure: A novel […] method for the quantitative assay of free L-arginine in blood plasma was developed. The method measures the color product from monosubstituted guanidines without and with L-arginase incubation to destroy the arginine and the potential guanido color product that would be derived from L-arginine. The photometric decrease in guanido color product measures specifically the concentration of L-arginine. The L-arginine methodology was applied to ultrafiltrates of blood plasma after ultrafiltrations of separated plasma samples were done at 4° Celsius.
Blood plasma levels after 9 to 10 hours of overnight fasting averaged 83.0±1.1 μM (mean±SD of 3 determinations). Two hours after ingestion of 3.0 grams of L-citrulline in capsular form, plasma L-arginine level rose by […] to 132.7 μM. Overnight fasting plasma levels of L-arginine measured 125.2, 98.1, 90.8, 114.2, and 120.0 μM after ingestion of L-citrulline for 6 days at 6.0 grams, for 13 days at 2.4 grams, for 6 days at 3.4 grams, for 7 days at 6.8 grams, and for 2 days at 8.5 grams, respectively, in 2 divided doses (morning and nightly).

[15] = plasma-borne; cited from earlier work
[16] = tested on: migraine pains; test: Migraine attack, oral L-citrulline capsules (Example 4); assay type: in vivo, human; details: 2.7 grams, again about 1 hour later, third dose 6 hours later
Procedure: […] Their body weight was 59 kg. The subject gave a history of migraine pains with and without aura for about 15 years. Currently, the migraine pains were recurring about once to a few times weekly. Their parent had experienced migraine headaches for many years.
Shortly after the onset of a severe headache attack, the subject ingested 2.7 grams of L-citrulline, followed by another 2.7 grams about 1 hour later. They ingested a third dose of the same amount 6 hours later.

[17] = intestinal-derived, portal venous blood; cited from earlier work
[18] = Total bleeding time, forearm template method (Example 2); assay type: in vivo, human; details: after 4 weeks of 5.4 grams daily in 2 divided doses
Procedure: The same subject that was studied in Example 1 was studied by total bleeding time determinations before and during ingestion of daily doses of L-citrulline, in two divided subdoses. Forearm bleeding times were done by 3 to 5 mm cuts about 1 mm deep made perpendicular to the fold of the elbow during template methodology and a sphygmomanometer cuff maintained near 40 mm Hg pressure. Control bleeding times were 51/2 minutes. Bleeding time rose to 131/2 minutes after 2 days of ingestion of 8.5 grams daily. Bleeding time was prolonged at 13 minutes after 4 weeks of ingestion of 5.4 grams of L-citrulline daily in 2 divided doses.

[19] = Tolerability during the study of Example 1; assay type: in vivo, human
Source text: They remained on their usual regular diet and continued working during the study.

[20] = tested on: human platelets; details: 300 μM extracellular; L-arginine 30 μM; cited from earlier work
[21] = tested on: migraine aura; details: inhalation of small amounts; cited from earlier work
[22] = tested on: platelet activity; details: cited from earlier work
[23] = tested on: hippocampal brain tissue; details: extracellular creatine increased by 3 mM; cited from earlier work
[24] = tested on: muscle; details: oral supplementation daily; cited from earlier work

For `Cl.N=C(N)NCCC[C@H](N)C(=O)O` [L-arginine hydrochloride], the “increase of plasma arginine levels” value [1] is given as “about 2.6 times”, the “neoendothelium-dependent arterial muscle relaxation” value [1] is given as “enhanced neoendothelium-dependent arterial muscle relaxation” and the “thickening after arterial injury” value [1] is given as “reduced thickening”.

For `N=C(N)NCCC[C@H](N)C(=O)O` [L-arginine], the “glomerular hyperfiltration and abnormal filtration fraction hemodynamics” value [2] is given as “prevents the glomerular hyperfiltration and abnormal filtration fraction hemodynamics”, the proteinuria [2] is given as “ameliorates the proteinuria” and the “endothelial nitric oxide production” value [3] is given as “augments endothelial nitric oxide production”. For the same molecule, the plasma citrulline levels [4] was “without a change in plasma citrulline levels”, the muscle quiescence [5] was “muscle quiescence” and the muscle relaxation [5] was “dose-dependent muscle relaxation”. The nitric oxide generation [5] was “nitric oxide generation”, the “creatine biosynthesis and pools of creatine and phosphocreatine in muscle and nerve” value [6] was “leads to more creatine biosynthesis and slowly expansible pools of creatine and phosphocreatine” and the “total sperm counts and motility rates” value [7] was “may improve total sperm counts and motility rates”. The plasma half-life [8] was “about 1 hour”, the “oligemic vasoconstriction following cortical spreading depression” value [9] was “reduces the oligemic vasoconstriction” and the “endothelial production of nitric oxide by c-NOS versus extracellular L-arginine” value [10] was “directly dependent upon the extracellular concentrations of L-arginine above 10 μM to levels of 1,000 μM and more without apparent saturation of the enzyme”. The impaired endothelium-dependent vasodilation [11] was “impaired endothelium-dependent vasodilation is corrected”, the Km [12] was roughly 6 µM and the “time of peak plasma arginine level” value ([13]; 24.8 grams of L-arginine (30 grams of arginine hydrochloride)) was “about 1 hour”. For the same molecule, the “time to return to near fasting values” ([13]; 24.8 grams of L-arginine) was 3 h and the “peak plasma arginine relative to fasting values” ([13]; 24.8 grams of L-arginine, fasting 90±6 μM) was “about 3.6 times”.

For `NC(=O)NCCC[C@H](N)C(=O)O` [L-citrulline], the “rise of plasma L-arginine level” value ([14]; 2 hours after single oral 3.0 grams, capsular form) was 62.4%, the “elevation of blood plasma L-arginine versus ingestion of equivalent amounts of L-arginine” value ([14]; comparison with L-arginine as single amino acid or in protein meals) was “more efficient and longer lasting” and the “blood plasma levels of L-arginine after overnight fasting 9 to 10 hours” value ([14]; daily dosage in two divided subdoses) was “greater blood plasma levels of L-arginine even after overnight fasting”. The “blood plasma concentrations of free L-arginine” value ([14]; single oral doses of 3.0 grams or more, capsule form) was “promptly raised to much higher levels”, the blood-brain barrier passage [15] was “readily passes the blood-brain barrier” and the migraine pain [16] was “markedly lessened in intensity and in duration”. The “nausea during the migraine attack” value [16] was “Much less nausea”, the liver uptake [17] was “Without appreciable liver uptake” and the Bleeding time [18] was 13 min. The “adverse symptoms or untoward signs” value [19] was “No adverse symptoms or untoward signs were experienced”.

For `NC(=O)CC[C@H](N)C(=O)O` [L-glutamine], the “effect on L-arginine uptake” value [20] is listed as “inhibitory”.

In the case of `NCCCC[C@H](N)C(=O)O` [L-lysine], the “effect on L-arginine uptake” value [20] is given as “inhibitory”.

In the case of `NCCC[C@H](N)C(=O)O` [L-ornithine], the “effect on L-arginine uptake” value [20] is listed as “inhibitory”.

For `CCCCCON=O` [amyl nitrite], the migraine aura [21] is given as “temporarily reversed migraine aura in some cases”.

In the case of `CC(=O)Oc1ccccc1C(=O)O` [aspirin, acetylsalicylic acid], the total bleeding time ([22]; low-dose / small therapeutic doses orally) is listed as “prolongs the total bleeding time; also recorded: prolonged” and the platelet activity ([22]; low-dose intake) is listed as “inhibits platelet activity”.

For `CN(CC(=O)O)C(=N)N` [creatine], the “neurocyte viabilities after anoxic periods” value [23] is listed as “greater neurocyte viabilities”, the “neuronal free creatine and phosphocreatine levels” value [23] is listed as “large increases in neuronal free creatine and phosphocreatine levels” and the “muscle fatigue with physical exercise” value [24] is listed as “lessened muscle fatigue”. For the same molecule, the “muscle stores of free creatine and phosphocreatine” value [24] was “greater muscle stores of free creatine and phosphocreatine”.
